Results taken from patent US20260115250A1, “METHODS OF TREATING AGE-RELATED MACULAR DEGENERATION” (Character Biosciences, Inc., priority 2022, published 2026).

Columns and labels:
[1] = DMPC solubility assay, 0.5 mM DMPC (turbidity reduction); type: biochemical; conditions: for DMPC solubilizing activity: FIGS. 2A-2D and 3A-3C; for EC50: 3.16-100 μM peptides, 15 minutes
Experimental: In this example, peptide stocks were diluted to 200 μM in H2O (a 2× solution) and 50 μL of peptide solution was transferred in triplicate into 96-well plates. A one mM solution of 1,2-dimyristoyl-sn-glycero-3-phosphocholine (DMPC) in H2O was prepared, and using a multichannel pipet, 50 μL DMPC solution was rapidly added to the plate. Peptide and lipid solutions were incubated at room temperature for 15 minutes with a final concentration of 100 μM peptides and 0.5 mM DMPC. After 15 minutes, absorbance was read on a plate reader at 405 nm. […] Data are presented as mean+SD over two runs.
In these experiments, DMPC solubility titration curves were generated. Peptide stocks were diluted to 200 μM in H2O (a 2× solution) and serially diluted in H2O over 4 concentrations, then 50 μL of peptide solutions were distributed in triplicate into 96-well plates. A 1 mM solution of 1,2-dimyristoyl-sn-glycero-3-phosphocholine (DMPC) in H2O was prepared, and using a multichannel pipet, 50 μL DMPC solution was rapidly added to the plate. Peptide and lipid solutions were incubated at room temperature for 15 minutes with final concentrations of 3.16-100 μM peptides and 0.5 mM DMPC. After 15 minutes, absorbance was read on a plate reader at 405 nm. […] Data are presented as mean+SD over two runs. Non-linear regression was used to calculate EC50 values.

HMC3 cells = assay: HMC3 cholesterol efflux; type: cell-based, human; conditions: HMC3, 20 μM peptide, 4 hours
Experimental: (§1) FIGS. 27A-27B and FIG. 28 illustrate HMC3 cholesterol efflux. Fully confluent 96-well plates of HMC3 cells were treated for 1 hour in serum-free EMEM containing 10 mM methyl-β-cyclodextrin, 100 μM cholesterol, and 25 μM BODIPY cholesterol. Cells were then washed and incubated overnight in serum free EMEM containing 1 μM LXR agonist GW3965, 2 μg/mL ACAT inhibitor, and 0.2% BSA (LXR Agonist treated), or serum-free EMEM containing 2 μg/mL ACAT inhibitor, and 0.2% BSA (Control). Cells were washed and incubated with 20 μM peptides diluted in serum-free Fluorobrite DMEM for 4 hours at 37° C. Media was transferred to a new 96-well plate and fresh serum-free Fluorobrite DMEM was placed on the cells. Media and cellular fluorescence were read on a Promega GloMax at 475 nm excitation, 500-550 emission. Fluorescence values were background corrected from no treatment conditions and percent efflux was calculated by the following equation: % efflux=(Media Fluorescence values)/(Media+Cell Fluorescence values). Data are presented as mean+SD over two runs per peptide.
as §1, with “FIGS. 30A-30J show” for “FIGS. 27A-27B and FIG. 28 illustrate”, “cholesterol efflux titration curves for the indicated peptides.” for “cholesterol efflux.”, “μM” for “μM LXR agonist”, “or serum free” for “or serum-free”, “with 0-100” for “with 20”, “peptides serially” for “peptides”

ABCA1 = target: T1, ABCA1 (Homo sapiens, UniProt O95477); assay: membrane ABCA1 stability testing in ARPE-19 cells treated with mCRP; type: cell-based; conditions: ARPE-19, mCRP, 20 μM peptide, 24 hours
T1 construct: endogenous in cells; host or cells: ARPE-19
T1 sequence (O95477 whole entry): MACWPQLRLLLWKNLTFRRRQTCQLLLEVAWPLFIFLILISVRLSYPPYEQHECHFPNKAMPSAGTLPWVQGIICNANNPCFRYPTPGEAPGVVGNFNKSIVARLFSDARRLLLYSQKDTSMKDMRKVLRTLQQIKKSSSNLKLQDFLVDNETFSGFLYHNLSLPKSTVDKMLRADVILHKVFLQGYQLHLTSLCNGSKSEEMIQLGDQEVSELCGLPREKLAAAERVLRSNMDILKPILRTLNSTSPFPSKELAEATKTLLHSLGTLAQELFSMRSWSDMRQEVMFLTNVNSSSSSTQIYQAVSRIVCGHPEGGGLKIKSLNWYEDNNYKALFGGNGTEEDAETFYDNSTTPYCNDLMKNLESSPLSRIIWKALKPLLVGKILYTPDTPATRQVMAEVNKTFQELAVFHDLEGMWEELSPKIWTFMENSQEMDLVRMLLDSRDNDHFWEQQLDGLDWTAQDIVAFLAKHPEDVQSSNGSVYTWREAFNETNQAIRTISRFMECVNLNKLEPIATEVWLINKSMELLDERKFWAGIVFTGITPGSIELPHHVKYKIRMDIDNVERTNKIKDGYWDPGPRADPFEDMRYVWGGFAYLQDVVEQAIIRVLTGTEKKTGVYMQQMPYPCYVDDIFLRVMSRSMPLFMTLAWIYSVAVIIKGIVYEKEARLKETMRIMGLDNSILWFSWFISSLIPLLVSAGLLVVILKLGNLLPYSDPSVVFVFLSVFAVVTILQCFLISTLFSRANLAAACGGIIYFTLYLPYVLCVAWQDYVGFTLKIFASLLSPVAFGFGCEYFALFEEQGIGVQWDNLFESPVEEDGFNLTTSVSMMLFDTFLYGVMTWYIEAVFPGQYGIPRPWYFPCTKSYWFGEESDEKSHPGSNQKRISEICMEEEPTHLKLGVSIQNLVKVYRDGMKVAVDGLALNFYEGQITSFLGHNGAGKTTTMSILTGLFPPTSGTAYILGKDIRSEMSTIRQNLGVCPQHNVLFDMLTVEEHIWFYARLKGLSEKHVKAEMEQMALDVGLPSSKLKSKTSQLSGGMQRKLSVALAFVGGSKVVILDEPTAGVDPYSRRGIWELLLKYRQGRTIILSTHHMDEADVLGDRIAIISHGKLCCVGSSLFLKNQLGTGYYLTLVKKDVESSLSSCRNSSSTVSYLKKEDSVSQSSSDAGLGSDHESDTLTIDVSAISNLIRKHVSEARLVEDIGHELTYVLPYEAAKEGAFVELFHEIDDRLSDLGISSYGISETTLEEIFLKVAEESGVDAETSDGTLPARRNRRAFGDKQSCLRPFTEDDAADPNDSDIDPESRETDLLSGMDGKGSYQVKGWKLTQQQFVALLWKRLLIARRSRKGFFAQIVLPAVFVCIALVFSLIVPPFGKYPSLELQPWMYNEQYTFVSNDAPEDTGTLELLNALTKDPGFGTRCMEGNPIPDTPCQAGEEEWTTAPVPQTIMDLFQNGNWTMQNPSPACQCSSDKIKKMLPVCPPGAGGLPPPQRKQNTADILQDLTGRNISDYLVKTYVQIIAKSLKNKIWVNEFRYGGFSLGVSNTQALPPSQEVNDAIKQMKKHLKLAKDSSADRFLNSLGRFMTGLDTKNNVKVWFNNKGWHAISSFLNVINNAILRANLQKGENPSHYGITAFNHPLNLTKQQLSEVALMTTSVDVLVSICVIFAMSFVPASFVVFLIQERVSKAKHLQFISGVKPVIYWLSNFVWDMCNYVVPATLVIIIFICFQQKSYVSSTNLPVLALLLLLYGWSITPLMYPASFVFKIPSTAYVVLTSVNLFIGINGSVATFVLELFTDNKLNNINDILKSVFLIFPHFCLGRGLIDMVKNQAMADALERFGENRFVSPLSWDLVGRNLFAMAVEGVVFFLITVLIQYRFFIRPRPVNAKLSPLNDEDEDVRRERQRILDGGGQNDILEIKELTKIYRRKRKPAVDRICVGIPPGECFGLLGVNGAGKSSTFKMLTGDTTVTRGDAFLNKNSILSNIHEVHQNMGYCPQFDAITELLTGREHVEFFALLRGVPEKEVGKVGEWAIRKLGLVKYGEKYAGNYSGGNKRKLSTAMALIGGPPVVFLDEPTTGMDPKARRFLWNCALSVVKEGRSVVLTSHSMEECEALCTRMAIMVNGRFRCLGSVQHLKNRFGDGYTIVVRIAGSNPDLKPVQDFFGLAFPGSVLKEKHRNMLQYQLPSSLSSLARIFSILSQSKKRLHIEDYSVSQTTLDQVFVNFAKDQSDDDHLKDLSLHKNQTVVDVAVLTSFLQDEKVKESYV
Experimental: ARPE-19 cells were seeded at 100,000 cells per well on 12-well plates and were allowed to grow to confluence. To prepare monomeric CRP (mCRP), recombinant CRP was prepared in a PBS solution containing 8 M Urea and 10 mM EDTA and incubated at 37° C. for 2 hours prior to desalting with a Zeba spin column (7K MW cutoff). mCRP was prepared to a 2× solution of 20 μg/mL. A 2× solution of 40 μM peptides was prepared in serum-free DMEM and serially diluted 1:2 over 4 concentrations. mCRP and peptides were added 1:1 to cells for 24 hours at 37° C. before isolating membrane protein and measuring membrane ABCA1 levels by western blot. Blots were quantified in ImageJ. Signals were further normalized to the LXR agonist treated group to determine percent (%) ABCA1 remaining. Treatment with LXR agonist increased membrane ABCA1 levels in this assay, but following treatment with mCRP, membrane ABCA1 levels were decreased.
FIGS. 35 and 36 show membrane ABCA1 stability testing using ARPE-19 cells. ARPE-19 cells were seeded at 100,000 cells per well on 12-well plates and were allowed to grow to confluence. To prepare monomeric CRP (mCRP), recombinant CRP was prepared in a PBS solution containing 8 M Urea and 10 mM EDTA and incubated at 37° C. for 2 hours prior to desalting with a Zeba spin column (7K MW cutoff). mCRP was prepared to a 2× solution of 20 μg/mL. A 2× solution of 40 μM peptides was prepared in serum-free DMEM. CRP and peptides were added 1:1 to cells for 24 hours at 37° C. before isolating membrane protein and measuring membrane ABCA1 levels by western blot. Blots were quantified in ImageJ. In FIG. 35, Signals were further normalized to the T-087 treated group to determine percent (%) ABCA1 levels compared to peptide T-087 treated cells. In FIG. 36, Signals were further normalized to the peptide T-101 treated group to determine percent (%) ABCA1 levels compared to peptide T-101 treated cells.

Row | Substance | membrane ABCA1 levels compared to peptide T-101 treated cells (ABCA1) | cholesterol efflux in the presence of LXR agonist (HMC3 cells) | also measured
1 | T-019: therapeutic peptide (NMDEINKRLHAYEEGVKKAADE) |  |  | DMPC solubilizing activity [1]: significant activity
2 | T-146: variant of peptide T-101 (AAAADALESALKELKRFIREWT) |  | greater cholesterol efflux | 
3 | T-126: variant of peptide T-101 (RSGADPLESALKELKRFIREWT) | reduction of membrane ABCA1 levels | greater cholesterol efflux | 
4 | T-099: therapeutic peptide (RRMKDYLKKFQETLKREFRDWE) |  |  | DMPC solubilizing activity [1]: did not have significant solubilizing activity
5 | HLRKLRKRLLRDADDLQDRLAEYQARAKEAFDR [T-063, therapeutic peptide] |  |  | EC50 [1]: 111 µM
6 | T-024: therapeutic peptide (FEHWISGIYSECKHLIQE) |  |  | DMPC solubilizing activity [1]: significant activity
7 | T-143: variant of peptide T-101 (RSGGDALESALKELKRFIREWT) |  | greater cholesterol efflux | 
8 | T-005: therapeutic peptide (PLRAELQEGARQKLHELQEKLS) |  |  | DMPC solubilizing activity [1]: did not have significant solubilizing activity
9 | T-142: variant of peptide T-101 (RSGADALESALKELKRFIREWA) |  | greater cholesterol efflux | 
10 | T-128: variant of peptide T-101 (RSGADALASALKELKRFIREWT) | reduction of membrane ABCA1 levels | greater cholesterol efflux | 
11 | HLRKLRKRLLRDGDKLSDRLAEYVARAKEAFDR [T-080, therapeutic peptide] |  |  | EC50 [1]: 155 µM
12 | HLRKLRKRLLRDGDDLQDRLAEYQARAKEAFDR [T-051, therapeutic peptide] |  |  | EC50 [1]: 15.6 µM
13 | T-144: variant of peptide T-101 (RSGADGLESALKELKRFIREWT) |  | greater cholesterol efflux | 
14 | T-140: variant of peptide T-101 (RSGADALESALKELKRFIRAWT) |  | greater cholesterol efflux | 
15 | T-177: variant of peptide T-087 (DAWERFRALFKEAAAYFR) |  |  | membrane ABCA1 levels compared to peptide T-087 treated cells (ABCA1): reduction of membrane ABCA1 levels
16 | HLRKLRKRLLRDGDKLQDRLAEYQAGAKEAFDR [T-054, therapeutic peptide] |  |  | EC50 [1]: 123 µM
17 | T-011: therapeutic peptide (DADDLQKRLAVYQAGAREGAER) |  |  | DMPC solubilizing activity [1]: significant activity
18 | T-134: variant of peptide T-101 (RSGADALESALKEAKRFIREWT) | reduction of membrane ABCA1 levels | greater cholesterol efflux | 
19 | T-014: therapeutic peptide (EQAQQIRLQAEAFQARLKSWFE) |  |  | DMPC solubilizing activity [1]: significant activity
20 | T-026: therapeutic peptide (GFGDWIDSIEAFSRSLHS) |  |  | DMPC solubilizing activity [1]: significant activity
21 | T-104: therapeutic peptide (TVRGSADALLEHLTRAWDGFNR) | reduction of membrane ABCA1 levels |  | 
22 | T-124: variant of peptide T-101 (RSGPDALESALKELKRFIREWT) | reduction of membrane ABCA1 levels | greater cholesterol efflux | 
23 | T-151: variant of peptide T-101 (RSGADALESALKELKRFIRAAA) |  | greater cholesterol efflux | 
24 | T-130: variant of peptide T-101 (RSGADALESPLKELKRFIREWT) | reduction of membrane ABCA1 levels |  | 
25 | T-137: variant of peptide T-101 (RSGADALESALKELKRAIREWT) | reduction of membrane ABCA1 levels | greater cholesterol efflux | 
26 | T-121: variant of peptide T-101 (ASGADALESALKELKRFIREWT) | reduction of membrane ABCA1 levels | greater cholesterol efflux | 
27 | T-173: variant of peptide T-087 (AAAERFRALFKELADYFR) |  |  | membrane ABCA1 levels compared to peptide T-087 treated cells (ABCA1): reduction of membrane ABCA1 levels

Now from value to substance, other results behind:

Row | membrane ABCA1 levels compared to peptide T-101 treated cells (ABCA1) | Substance | cholesterol efflux in the presence of LXR agonist (HMC3 cells) | also measured
28 | reduction of membrane ABCA1 levels | T-148: variant of peptide T-101 (RSGADALESAAAALKRFIREWT) | greater cholesterol efflux | 
29 | reduction of membrane ABCA1 levels | T-127: variant of peptide T-101 (RSGADAAESAAKELKRFIREWT) |  | 
30 | reduction of membrane ABCA1 levels | T-132: variant of peptide T-101 (RSGADALESALAELKRFIREWT) |  | 
31 | reduction of membrane ABCA1 levels | T-138: variant of peptide T-101 (RSGADALESALKELKRFAREWT) | greater cholesterol efflux | 
32 | reduction of membrane ABCA1 levels | T-141: variant of peptide T-101 (RSGADALESALKELKRFIREAT) | greater cholesterol efflux | 
33 | reduction of membrane ABCA1 levels | T-150: variant of peptide T-101 (RSGADALESALKELKRAAAEWT) | greater cholesterol efflux | 
34 | reduction of membrane ABCA1 levels | T-135: variant of peptide T-101 (RSGADALESALKELARFIREWT) | greater cholesterol efflux | 
35 | reduction of membrane ABCA1 levels | T-145: variant of peptide T-101 (RSGADALESGLKELKRFIREWT) | greater cholesterol efflux | 
36 | reduction of membrane ABCA1 levels | T-149: variant of peptide T-101 (RSGADALESALKEAAAFIREWT) | greater cholesterol efflux | 
